In publication PMC8739347 (Tropical Medicine and Health, 2022):

Legend:
[1] = test system: SARS-CoV-2 original Wuhan strain (hCoV-19/Japan/TY/WK-521,2019); test: Antiviral activity assay in Vero E6 cells, qRT-PCR of supernatant; format: cell-based; conditions: Severe acute respiratory syndrome coronavirus 2, Vero C1008, Vero E6, 72 h pretreatment, MOI 0.02, 48 h pi, compound concentration (for 5-ALA/SFC the 5-ALA concentration, ratio 4:1)
[2] = Cell viability assay (MTT); format: cell-based; conditions: African green monkey, Vero E6 cells; Vero E6, 3 days, in parallel with Delta antiviral assay; 5-ALA concentration
Protocol: (§1) Vero E6 cells in 96-well plates were treated with samples for 3 days, and a cell viability assay was conducted in parallel with an antiviral assay. To determine the concentration that triggered a 50% reduction in cell survival (CC50), the results of the cell viability assay were evaluated by 3-(4,5-dimethylthiazol-2-yl)-2,5-diphenyl tetrazolium bromide according to the manufacturer’s instructions (Promega, Madison, WI, USA). Optical density was measured at 570 nm using a microplate reader (Synergy H1 M; BioTek Instruments, Winooski, VT, USA). Cell viability was determined using the following equation: cell viability (%) = (sample value)/(cell control) × 100. In addition, viral inhibition by 50% (IC50) was calculated as viral inhibition (%) = quantity of virus copies in (virus control − sample)/virus control × 100.

[3] = test system: Vero E6 cells; test: Cell viability assay (MTT); format: cell-based; conditions: Vero E6, 3 days, 5-ALA concentration
Protocol: as §1

[4] = set-up: method as in PMID 11961050; conditions: oral route; cited from earlier work
[5] = test system: SARS-CoV-2; set-up: method as in PMID 31781665; conditions: SFC only; cited from earlier work

Compound | IC50 [1] [µM] | CC50 at 3 days [2] [µM] | CC50 ([3]; in parallel with Alpha antiviral assay) [µM] | CC50 ([3]; in parallel with Beta antiviral assay) [µM] | CC50 ([3]; in parallel with Gamma antiviral assay) [µM] | CC50 ([3]; in parallel with Wuhan antiviral assay) [µM] | bioavailability [4] | antiviral activity [5]
NCC(=O)CCC(=O)O [5-ALA, 5-aminolevulinic acid] | 207 | > 2000 | > 2000 | > 2000 | > 2000 | > 2000 | high bioavailability | 
CCC(CC)COC(=O)[C@H](C)N[P@](=O)(OC[C@H]1O[C@@](C#N)(c2ccc3c(N)ncnn23)[C@H](O)[C@@H]1O)Oc1ccccc1 [remdesivir, Remdesivir] | 0.1 to 1 |  |  |  |  |  |  | 
Sodium ferrous citrate [SFC] |  |  |  |  |  |  |  | did not show antiviral activity
